Test results from PubChem BioAssay AID256 (DTP/NCI, 2004).
Several values for one entry are separate records, joined by “and”; a condition that tells them apart may be missing. Equal values may be shown once. Toxic doses and inconclusive results are not listed.

Test system: CD2F1 mice, L1210 leukemia ip, survival T/C
Assay: NCI In Vivo Anticancer Drug Screen. Data for tumor model L1210 Leukemia (intraperitoneal) in CD2F1 (CDF1) mice
Conditions: higher = longer survival
How it was run: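 Antitumor effect is scored in animals hosting a serially transplanted tumor. Values compare compound-dosed animals against vehicle-only controls as a simple quotient.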

[1] = endpoint: mean survival time, dose: 12.5 mg/kg/injection, schedule: Q01DX009 (ip), vehicle: saline with Tween-80
[2] = endpoint: mean survival time, dose: 100.0 mg/kg/injection, schedule: Q04DX003 (ip), vehicle: saline
[3] = endpoint: mean survival time, dose: 400.0 mg/kg/injection, schedule: Q04DX003 (ip), vehicle: saline
[4] = endpoint: mean survival time, dose: 100.0 mg/kg/injection, schedule: Q01DX001 (ip), vehicle: saline with Tween-80
[5] = endpoint: mean survival time, dose: 200.0 mg/kg/injection, schedule: Q01DX001 (ip), vehicle: saline with Tween-80
[6] = endpoint: mean survival time, dose: 400.0 mg/kg/injection, schedule: Q01DX001 (ip), vehicle: saline with Tween-80
[7] = endpoint: mean survival time, dose: 200.0 mg/kg/injection, schedule: Q04DX003 (ip), vehicle: saline with Tween-80

Structure (SMILES): O=C1C=CN(C2OC(CO)C(O)C2O)C(=O)C1 (stereo not given)
- T/C (endpoint: mean survival time, dose: 6.25 mg/kg/injection, schedule: Q01DX009 (ip), vehicle: saline with Tween-80): 120 % of control
- T/C [1]: 124 % of control
- T/C (endpoint: mean survival time, dose: 75.0 mg/kg/injection, schedule: Q01DX005 (ip), vehicle: saline): 113 % of control
- T/C (endpoint: mean survival time, dose: 100.0 mg/kg/injection, schedule: Q01DX009 (ip), vehicle: saline with Tween-80): 102 % of control
- T/C (endpoint: mean survival time, dose: 150.0 mg/kg/injection, schedule: Q01DX005 (ip), vehicle: saline): 122 % of control
- T/C (endpoint: mean survival time, dose: 150.0 mg/kg/injection, schedule: Q01DX005 (iv), vehicle: saline): 124 % of control
- T/C (endpoint: mean survival time, dose: 200.0 mg/kg/injection, schedule: Q01DX009 (ip), vehicle: saline with Tween-80): 113 % of control
- T/C (endpoint: mean survival time, dose: 300.0 mg/kg/injection, schedule: Q01DX005 (ip), vehicle: saline): 101 % of control
- T/C (endpoint: mean survival time, dose: 300.0 mg/kg/injection, schedule: Q01DX005 (iv), vehicle: saline): 116 % of control
- T/C (endpoint: mean survival time, dose: 400.0 mg/kg/injection, schedule: Q01DX009 (ip), vehicle: saline with Tween-80): 93 % of control
- T/C (endpoint: mean survival time, dose: 600.0 mg/kg/injection, schedule: Q01DX005 (ip), vehicle: saline): 119 % of control
- T/C (endpoint: median survival time, dose: 12.5 mg/kg/injection, schedule: Q01DX009 (ip), vehicle: saline): 121 % of control
- T/C (endpoint: median survival time, dose: 25.0 mg/kg/injection, schedule: Q01DX009 (ip), vehicle: saline): 172 % of control
- T/C (endpoint: median survival time, dose: 75.0 mg/kg/injection, schedule: Q01DX009 (ip), vehicle: saline): 113 % of control

Structure (SMILES): O=S1(=O)CC(Cl)C(Cl)C1 (stereo not given)
- T/C (endpoint: mean survival time, dose: 50.0 mg/kg/injection, schedule: Q04DX003 (ip), vehicle: alcohol): 105 % of control

Structure (SMILES): BrCN(CBr)c1ccc2c(c1)Cc1cc(Br)ccc1-2
- T/C [2]: 100 % of control
- T/C (endpoint: mean survival time, dose: 200.0 mg/kg/injection, schedule: Q04DX003 (ip), vehicle: saline): 101 % of control
- T/C [3]: 103 % of control

Structure (SMILES): COc1ccc(CCF)cc1
- T/C [4]: 110 % of control
- T/C [5]: 100 % of control
- T/C [6]: 114 % of control

Structure (SMILES): Cc1cccc(N/N=C2\CCSc3ccccc32)c1
- T/C [4]: 100 % of control
- T/C [5]: 100 % of control
- T/C [6]: 103 % of control

Structure (SMILES): COc1ccccc1-n1c(O)c(N=Nc2ccccc2)c(=O)n(-c2ccccc2)c1=S
- T/C (endpoint: mean survival time, dose: 100.0 mg/kg/injection, schedule: Q04DX003 (ip), vehicle: acetone): 90 % of control

Structure (SMILES): CCCc1nc(N)[nH]c(=O)c1CCCCc1ccccc1
- T/C (endpoint: mean survival time, dose: 100.0 mg/kg/injection, schedule: Q04DX003 (ip), vehicle: saline with Tween-80): 88 % of control
- T/C [7]: 94 % of control
- T/C (endpoint: mean survival time, dose: 400.0 mg/kg/injection, schedule: Q04DX003 (ip), vehicle: saline with Tween-80): 93 % of control

Structure (SMILES): O=c1cc(O)c(Cl)nn1C1OC(CO)C(O)C1O (stereo not given)
- T/C (endpoint: mean survival time, dose: 12.5 mg/kg/injection, schedule: Q01DX009 (ip), vehicle: water): 103 % of control
- T/C (endpoint: mean survival time, dose: 25.0 mg/kg/injection, schedule: Q01DX009 (ip), vehicle: water): 97 % of control
- T/C (endpoint: mean survival time, dose: 50.0 mg/kg/injection, schedule: Q01DX009 (ip), vehicle: water): 100 % of control
- T/C (endpoint: mean survival time, dose: 100.0 mg/kg/injection, schedule: Q01DX009 (ip), vehicle: water): 100 % of control
- T/C (endpoint: mean survival time, dose: 200.0 mg/kg/injection, schedule: Q01DX009 (ip), vehicle: water): 95 % of control
- T/C (endpoint: mean survival time, dose: 400.0 mg/kg/injection, schedule: Q01DX009 (ip), vehicle: water): 91 % of control

Structure (SMILES): ClCCn1c(CCl)nc2ccc(Cl)cc21
- T/C (endpoint: mean survival time, dose: 2.5 mg/kg/injection, schedule: Q01DX009 (ip), vehicle: Klucel (hydroxypropylcellulose) (HPC)): 109 % of control
- T/C (endpoint: mean survival time, dose: 5.0 mg/kg/injection, schedule: Q01DX009 (ip), vehicle: Klucel (hydroxypropylcellulose) (HPC)): 101 % of control
- T/C (endpoint: mean survival time, dose: 10.0 mg/kg/injection, schedule: Q01DX009 (ip), vehicle: Klucel (hydroxypropylcellulose) (HPC)): 95 % of control and 102 % of control

Structure (SMILES): CCCCOC(=O)C1(N)CCCC1
- T/C [2]: 110 % of control
- T/C [3]: 102 % of control

Structure (SMILES): CCN(N=O)C(=O)Nc1ccc(C2CC(=O)N(C)C2=O)cc1 (stereo not given)
- T/C (endpoint: mean survival time, dose: 12.5 mg/kg/injection, schedule: Q01DX001 (ip), vehicle: distilled water + Tween-80): 99 % of control
- T/C (endpoint: mean survival time, dose: 25.0 mg/kg/injection, schedule: Q01DX001 (ip), vehicle: distilled water + Tween-80): 111 % of control
- T/C (endpoint: mean survival time, dose: 50.0 mg/kg/injection, schedule: Q01DX001 (ip), vehicle: distilled water + Tween-80): 94 % of control and 98 % of control and 108 % of control
- T/C (endpoint: mean survival time, dose: 100.0 mg/kg/injection, schedule: Q01DX001 (ip), vehicle: distilled water + Tween-80): 122 % of control and 94 % of control and 96 % of control
- T/C (endpoint: mean survival time, dose: 200.0 mg/kg/injection, schedule: Q01DX001 (ip), vehicle: distilled water + Tween-80): 99 % of control and 101 % of control

Structure (SMILES): CCN1/C(=C/C=C/c2oc3ccc4ccccc4c3[n+]2CC)Oc2ccc3ccccc3c21
- T/C (endpoint: mean survival time, dose: 9.5 mg/kg/injection, schedule: Q01DX001 (ip), vehicle: other): 104 % of control
- T/C (endpoint: mean survival time, dose: 19.0 mg/kg/injection, schedule: Q01DX001 (ip), vehicle: other): 112 % of control
- T/C (endpoint: mean survival time, dose: 38.0 mg/kg/injection, schedule: Q01DX001 (ip), vehicle: other): 118 % of control

Structure (SMILES): CN(C)CCC[n+]1cc2c3ccccc3c(N)cc2c2ccccc21
- T/C (endpoint: mean survival time, dose: 3.13 mg/kg/injection, schedule: Q04DX003 (ip), vehicle: water): 103 % of control
- T/C (endpoint: mean survival time, dose: 6.25 mg/kg/injection, schedule: Q04DX003 (ip), vehicle: water): 106 % of control
- T/C (endpoint: mean survival time, dose: 12.5 mg/kg/injection, schedule: Q04DX003 (ip), vehicle: water): 103 % of control
- T/C (endpoint: mean survival time, dose: 25.0 mg/kg/injection, schedule: Q04DX003 (ip), vehicle: water): 109 % of control
- T/C (endpoint: mean survival time, dose: 50.0 mg/kg/injection, schedule: Q04DX003 (ip), vehicle: water): 109 % of control

Structure (SMILES): CCC(CNCC(=O)O)(C(=O)O)C(=O)O
- T/C (endpoint: mean survival time, dose: 12.5 mg/kg/injection, schedule: Q04DX002 (ip), vehicle: saline with Tween-80): 104 % of control
- T/C (endpoint: mean survival time, dose: 25.0 mg/kg/injection, schedule: Q04DX002 (ip), vehicle: saline with Tween-80): 93 % of control
- T/C (endpoint: mean survival time, dose: 50.0 mg/kg/injection, schedule: Q04DX002 (ip), vehicle: saline with Tween-80): 111 % of control

Structure (SMILES): COC(=O)c1cc(-c2ccccc2)nc2c1ccc1ccccc12
- T/C (endpoint: mean survival time, dose: 100.0 mg/kg/injection, schedule: Q01DX001 (ip), vehicle: saline): 94 % of control

Structure (SMILES): O=c1cc([O-])[n+](C2OC(CO)C(O)C2O)c2sccn12 (stereo not given)
- T/C (endpoint: median survival time, dose: 10.63 mg/kg/injection, schedule: Q01DX005 (ip), vehicle: water): 102 % of control
- T/C (endpoint: median survival time, dose: 12.5 mg/kg/injection, schedule: Q01DX005 (ip), vehicle: saline): 102 % of control
- T/C (endpoint: median survival time, dose: 21.25 mg/kg/injection, schedule: Q01DX005 (ip), vehicle: water): 98 % of control
- T/C (endpoint: median survival time, dose: 25.0 mg/kg/injection, schedule: Q01DX005 (ip), vehicle: saline): 101 % of control
- T/C (endpoint: median survival time, dose: 42.5 mg/kg/injection, schedule: Q01DX005 (ip), vehicle: water): 98 % of control
- T/C (endpoint: median survival time, dose: 50.0 mg/kg/injection, schedule: Q01DX005 (ip), vehicle: saline): 98 % of control
- T/C (endpoint: median survival time, dose: 85.0 mg/kg/injection, schedule: Q01DX005 (ip), vehicle: water): 102 % of control
- T/C (endpoint: median survival time, dose: 100.0 mg/kg/injection, schedule: Q01DX005 (ip), vehicle: saline): 97 % of control
- T/C (endpoint: median survival time, dose: 170.0 mg/kg/injection, schedule: Q01DX005 (ip), vehicle: water): 100 % of control
- T/C (endpoint: median survival time, dose: 200.0 mg/kg/injection, schedule: Q01DX005 (ip), vehicle: saline): 98 % of control

Structure (SMILES): CCCCCCOc1ccc(N=Cc2ccc(N(C)C)cc2)cc1
- T/C (endpoint: mean survival time, dose: 75.0 mg/kg/injection, schedule: Q01DX001 (ip), vehicle: other): 93 % of control
- T/C (endpoint: mean survival time, dose: 150.0 mg/kg/injection, schedule: Q01DX001 (ip), vehicle: other): 94 % of control

Structure (SMILES): Nc1nc(OCc2ccccc2)ncc1C(=O)NCC(=O)O
- T/C [1]: 105 % of control
- T/C (endpoint: mean survival time, dose: 25.0 mg/kg/injection, schedule: Q01DX009 (ip), vehicle: saline with Tween-80): 100 % of control
- T/C (endpoint: mean survival time, dose: 50.0 mg/kg/injection, schedule: Q01DX009 (ip), vehicle: saline with Tween-80): 104 % of control

Structure (SMILES): NC(=S)N/N=C/c1ccc(OC(=O)COc2ccccc2)cn1
- T/C (endpoint: mean survival time, dose: 88.0 mg/kg/injection, schedule: Q04DX003 (ip), vehicle: saline with Tween-80): 123 % of control
- T/C (endpoint: mean survival time, dose: 100.0 mg/kg/injection, schedule: Q04DX002 (ip), vehicle: saline with Tween-80): 118 % of control
- T/C (endpoint: mean survival time, dose: 200.0 mg/kg/injection, schedule: Q04DX002 (ip), vehicle: saline with Tween-80): 122 % of control
- T/C [7]: 118 % of control
- T/C (endpoint: mean survival time, dose: 400.0 mg/kg/injection, schedule: Q04DX002 (ip), vehicle: saline with Tween-80): 152 % of control and 155 % of control
- T/C (endpoint: mean survival time, dose: 800.0 mg/kg/injection, schedule: Q04DX002 (ip), vehicle: saline with Tween-80): 174 % of control

Structure (SMILES): COC1OC2COc3ccccc3OC2C(N)C1SSC1C(OC)OC2COc3ccccc3OC2C1N (stereo not given)
- T/C (endpoint: mean survival time, dose: 75.0 mg/kg/injection, schedule: Q01DX001 (ip), vehicle: saline with Tween-80): 94 % of control
- T/C (endpoint: mean survival time, dose: 150.0 mg/kg/injection, schedule: Q01DX001 (ip), vehicle: saline with Tween-80): 95 % of control
- T/C (endpoint: mean survival time, dose: 300.0 mg/kg/injection, schedule: Q01DX001 (ip), vehicle: saline with Tween-80): 94 % of control
